The values below come from article PMC10771415, “Mechanism of anion exchange and small-molecule inhibition of pendrin” (Nature Communications, 2024).

The target of experiment [1] is pendrin (ssPendrin, SLC26A4) (Sus scrofa, UniProt A0A480E679, Q101L). Put plainly: inhibition of […]-HCO3- uptake in proteoliposomes of purified mutant. It is filed as biochemical.
In experiment [2] the target is pendrin (ssPendrin, SLC26A4) (Sus scrofa, UniProt A0A480E679, Q101L/T224A). The description is as above. It is filed as biochemical.
Experiment [3] addresses T1, pendrin (ssPendrin, SLC26A4) (Sus scrofa, UniProt A0A480E679).
T1 construct: C-terminal TEV site and 8x His-tag
T1 sequence (A0A480E679 1-780): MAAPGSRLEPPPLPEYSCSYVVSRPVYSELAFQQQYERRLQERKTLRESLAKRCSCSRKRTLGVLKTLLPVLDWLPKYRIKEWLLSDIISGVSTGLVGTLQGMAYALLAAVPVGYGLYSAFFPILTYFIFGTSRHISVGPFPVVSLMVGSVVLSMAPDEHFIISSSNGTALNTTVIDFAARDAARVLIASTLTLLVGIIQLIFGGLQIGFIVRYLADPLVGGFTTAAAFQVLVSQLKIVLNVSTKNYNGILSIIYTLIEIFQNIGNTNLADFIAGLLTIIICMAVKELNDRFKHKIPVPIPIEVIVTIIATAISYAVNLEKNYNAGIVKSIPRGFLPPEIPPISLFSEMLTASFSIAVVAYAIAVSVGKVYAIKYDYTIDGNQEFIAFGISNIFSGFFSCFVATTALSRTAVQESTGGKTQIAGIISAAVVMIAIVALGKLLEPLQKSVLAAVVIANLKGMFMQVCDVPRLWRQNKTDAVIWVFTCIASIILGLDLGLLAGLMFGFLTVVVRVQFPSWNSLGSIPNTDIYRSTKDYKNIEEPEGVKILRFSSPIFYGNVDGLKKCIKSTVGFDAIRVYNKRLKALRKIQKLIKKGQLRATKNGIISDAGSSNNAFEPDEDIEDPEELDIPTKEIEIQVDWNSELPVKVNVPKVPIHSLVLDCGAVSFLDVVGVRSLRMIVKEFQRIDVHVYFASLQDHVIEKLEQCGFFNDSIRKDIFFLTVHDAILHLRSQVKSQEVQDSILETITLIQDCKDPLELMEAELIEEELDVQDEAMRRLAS
Put plainly: cryo-EM structure at […] Å; inhibition of […]-HCO3- uptake in proteoliposomes of purified protein. The experiment is classed as biochemical.

Experiment [4] deals with pendrin (ssPendrin, SLC26A4) (Sus scrofa, UniProt A0A480E679, T224V). Put plainly: inhibition of […]-HCO3- uptake in proteoliposomes of purified mutant. It is filed as biochemical.
Experiment [5] deals with pendrin from Sus scrofa (ssPendrin) (Sus scrofa). Put plainly: cryo-EM structure; purified ssPendrin in 20 mM HEPES pH 7.5, 2 mM BME, 0.02% GDN with 150 mM NaCl, NaI, NaHCO3 or Na gluconate, or 150 mM NaCl and 10 mM NFA; refined with C2 symmetry.

pendrin (ssPendrin, SLC26A4) (Sus scrofa, UniProt A0A480E679, Q101L/T224A), sequence (A0A480E679 entry or part of it Q101L/T224A): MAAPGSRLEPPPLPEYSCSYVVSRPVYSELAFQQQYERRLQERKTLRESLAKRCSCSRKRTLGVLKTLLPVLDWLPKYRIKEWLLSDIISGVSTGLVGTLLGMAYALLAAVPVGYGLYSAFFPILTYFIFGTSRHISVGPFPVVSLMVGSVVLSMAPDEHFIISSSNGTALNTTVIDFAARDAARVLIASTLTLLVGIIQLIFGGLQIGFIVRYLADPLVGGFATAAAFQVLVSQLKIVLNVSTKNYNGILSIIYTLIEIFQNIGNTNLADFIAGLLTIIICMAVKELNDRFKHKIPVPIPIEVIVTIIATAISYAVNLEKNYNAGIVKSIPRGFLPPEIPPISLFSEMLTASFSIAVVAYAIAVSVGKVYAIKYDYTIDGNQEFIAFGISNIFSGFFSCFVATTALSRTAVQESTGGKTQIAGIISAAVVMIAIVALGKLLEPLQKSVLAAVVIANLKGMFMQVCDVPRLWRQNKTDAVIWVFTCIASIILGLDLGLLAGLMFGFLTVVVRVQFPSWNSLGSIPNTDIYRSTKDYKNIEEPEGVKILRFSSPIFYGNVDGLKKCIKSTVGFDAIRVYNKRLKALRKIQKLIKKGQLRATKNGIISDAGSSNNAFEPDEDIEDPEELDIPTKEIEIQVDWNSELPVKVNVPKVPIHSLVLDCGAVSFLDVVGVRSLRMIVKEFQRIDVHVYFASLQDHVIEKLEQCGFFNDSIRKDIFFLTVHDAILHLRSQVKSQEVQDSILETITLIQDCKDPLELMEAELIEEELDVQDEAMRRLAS
pendrin (ssPendrin, SLC26A4) (Sus scrofa, UniProt A0A480E679, Q101L), sequence (A0A480E679 entry or part of it Q101L): as the sequence (A0A480E679 entry or part of it Q101L/T224A) above, with A224T counted along it
pendrin (ssPendrin, SLC26A4) (Sus scrofa, UniProt A0A480E679, T224V), sequence (A0A480E679 entry or part of it T224V): as the sequence (A0A480E679 entry or part of it Q101L/T224A) above, with L101Q, A224V counted along it

`O=C(O)c1cccnc1Nc1cccc(C(F)(F)F)c1` [NFA, niflumic acid]: the IC50 in experiment [1] was found to be 31.2 µM; in experiment [2], 16.3 µM; in experiment [3] it was 15.5 ± 1.5 µM; in experiment [4] it was 9.5 µM.

As for “pendrin from Sus scrofa (ssPendrin) (natural protein)”, the stoichiometry N in experiment [5] turned out to be 2.

The IC50 is the point on the concentration scale where inhibition reaches its midpoint. Low values mean greater potency in that assay, high ones weaker potency in that assay. The stoichiometry N is the number of molecules, sites or subunits per partner or assembly.
